Consider three compounds from patent US5962531A, “5-aroylnaphthalene derivatives as anti-inflammatory agents” (Syntex (U.S.A.) Inc., priority 1998, dated 1999).

For one assay, the system named is PGE2. Put plainly: Inhibition of eicosanoid (prostaglandin E2) synthesis in vivo, carrageenan air-pouch model in rats. More on the design: species or system rat. The conditions noted are these: oral, male rats. As to the method:
In this assay, an air-pouch is created in the rat and the PGE2 levels in the air-pouch exudate are measured by enzyme immunoassay. Briefly, male rats were anesthetized using a 60:40 CO2 :O2 mixture and subsequently injected subcutaneously with 20 ml of sterilized air, under aseptic conditions, in the proximal area of the dorsum. This injection of sterile air causes the creation of a subcutaneous "air pouch". The next day, a further 10 ml of sterile air was injected into the previously formed pouch using the same technique. […] Control rats received vehicle alone. After 30 minutes, 5 ml of a 0.5% solution of carrageenan (Sigma, Lambda Type IV) was injected into the air pouch. The rats were euthanized 3 or 6 h after the compound administration. […] The total exudate volume was recorded, and the samples were analyzed for PGE2 and 6-keto PGF1 by ELISA (Titerzyme®, PerSeptive Diagnostics, Boston, Mass.) and TxB2 by radioimmuno assay (New England Nuclear Research, Boston, Mass., Catalog No. NEK-037), according to the manufacturer's directions.
The mean concentrations of PGE2 were calculated for each group. The anti-inflammatory activity of test materials is expressed as the percent inhibition of PGE2 formation in the test group relative to the control group.

The next assay deals with Alzheimer's patients. The note with it: Rogers, J., et. al., Neurology, 43, 1609, (1993); cited from earlier work.
In another assay the target is T1, COX I (Homo sapiens, UniProt P23219).
T1 construct: made in house; baculovirus-infected insect cells according to the cited Barnett et al. 1994 (own knowledge)
T1 sequence (P23219 24-599): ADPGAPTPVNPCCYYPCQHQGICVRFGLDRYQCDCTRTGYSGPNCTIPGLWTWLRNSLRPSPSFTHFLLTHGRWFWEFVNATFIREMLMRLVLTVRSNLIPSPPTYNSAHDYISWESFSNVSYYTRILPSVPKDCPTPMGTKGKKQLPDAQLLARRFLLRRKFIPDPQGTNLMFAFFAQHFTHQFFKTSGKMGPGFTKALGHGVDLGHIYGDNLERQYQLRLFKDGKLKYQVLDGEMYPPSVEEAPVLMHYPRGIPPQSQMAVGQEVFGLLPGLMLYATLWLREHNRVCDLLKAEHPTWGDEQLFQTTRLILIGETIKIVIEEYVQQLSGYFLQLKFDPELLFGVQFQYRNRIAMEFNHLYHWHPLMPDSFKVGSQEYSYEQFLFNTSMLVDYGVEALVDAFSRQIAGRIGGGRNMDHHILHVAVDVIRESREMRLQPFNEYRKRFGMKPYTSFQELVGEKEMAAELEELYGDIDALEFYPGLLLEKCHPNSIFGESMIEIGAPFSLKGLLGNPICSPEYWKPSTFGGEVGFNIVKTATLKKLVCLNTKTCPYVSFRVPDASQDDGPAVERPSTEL
Put plainly: Inhibition of COX I in vitro (radiometric assay, partially purified enzyme). Type of assay: biochemical. As to the method:
(§1) The COX I and COX II inhibitory activity of compounds of this invention in vitro was determined using partially purified COX I and COX II enzymes, prepared as described in J. Barnett et. al., Biochim. Biophys.
(§2) COX I and COX II samples were diluted with Tris-HCl buffer (SOmM Tris-HCl, pH 7.9) containing 2 mM EDTA and 10% glycerol and reconstituted by incubating first with 2 mM phenol for 5 minutes and then with 1 micromolar hematin for an additional 5 minutes. 125 μl of the reconstituted COX I or COX II enzyme were preincubated for 10 minutes at room temperature in a shaking water bath with the compounds of the invention dissolved in 2-15 μl of DMSO or the carrier vehicles (control samples). The enzyme reaction was initiated by adding 25 μl of 1-[14 C]arachidonic acid (80,000-100,000 cpm/tube; 20 micromolar final concentration) and the reaction was allowed to continue for an additional 45 seconds. The reaction was terminated by adding 100 μl of 2N HCl and 750 μl water. An aliquot (950 μl) of the reaction mixture was loaded onto a 1 ml C18 Sep-Pak column (J. T. Baker, Phillipsburg, N.J.) which had been previously washed with 2-3 ml methanol and equilibrated with 5-6 ml distilled water. Oxygenated products were quantitatively eluted with 3 ml of acetonitrile/water/acetic acid (50:50:0.1, v/v) and the radioactivity in the eluate determined in a scintillation counter.

For the next assay, the target named is T2, COX II (Homo sapiens, UniProt P35354).
T2 construct: made in house; baculovirus-infected insect cells according to the cited Barnett et al. 1994 (own knowledge)
T2 sequence (P35354 18-604): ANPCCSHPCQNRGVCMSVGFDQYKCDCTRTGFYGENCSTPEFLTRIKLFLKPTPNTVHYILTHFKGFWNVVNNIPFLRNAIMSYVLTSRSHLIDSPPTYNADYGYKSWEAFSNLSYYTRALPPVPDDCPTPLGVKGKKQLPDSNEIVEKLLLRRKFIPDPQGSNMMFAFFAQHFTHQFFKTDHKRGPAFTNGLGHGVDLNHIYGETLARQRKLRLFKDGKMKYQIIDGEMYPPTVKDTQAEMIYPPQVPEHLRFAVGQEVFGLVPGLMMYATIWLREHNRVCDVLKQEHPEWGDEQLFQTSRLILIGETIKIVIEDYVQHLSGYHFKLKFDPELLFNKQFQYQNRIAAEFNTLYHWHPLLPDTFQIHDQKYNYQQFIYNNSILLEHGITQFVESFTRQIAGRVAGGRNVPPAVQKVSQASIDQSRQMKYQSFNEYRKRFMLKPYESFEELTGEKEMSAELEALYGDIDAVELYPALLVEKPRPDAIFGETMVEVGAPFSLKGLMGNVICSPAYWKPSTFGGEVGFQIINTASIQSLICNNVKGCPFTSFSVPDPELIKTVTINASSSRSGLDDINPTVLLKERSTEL
The assay can be described thus: Inhibition of COX II in vitro (radiometric assay, partially purified enzyme). Type of assay: biochemical. As for the experimental part: as §1, §2

Assay [1] has as its system carrageenan-induced paw edema. The assay can be described thus: Inhibition of carrageenan-induced paw edema in the rat. The class given is in vivo. The note with it: oral, female rats. As to the method: The anti-inflammatory activity of compounds of this invention was determined by measuring the inhibition of carrageenan-induced paw edema in the rat, using a modification of the method described in Winter C. A. et al., "Carrageenan-Induced Edema in Hind Paw of the Rat as an Assay for Anti-inflammatory Drugs" Proc. Soc. Exp. Biol. Med. 111, 544-547, (1962). This assay has been used as a primary in vivo screen for anti-inflammatoryactivity of most NSAIDs, and is considered predictive of human efficacy. Briefly, test materials were administered orally to female rats in a volume of 1 ml prepared as solutions or suspensions in an aqueous vehicle containing 0.9% sodium chloride, 0.5% sodium carboxymethyl-cellulose, 0.4% polysorbate 80, 0.9% benzyl alcohol and 97.3% distilled water. Control rats received vehicle alone. After 1 h 0.05 ml of a 0.5% solution of Carrageenan (Type IV Lambda, Sigma Chemical Co.) in 0.9% saline was injected into the subplantar region of the right hind paw. Three hours later the rats were euthanized in a carbon dioxide atmosphere; hind paws were removed by severing at the tatso-crural joint; and the left and right paws were weighed. The increase in weight of the right paw over the left paw was obtained for each animal and the mean increases were calculated for each group. The anti-inflammatory activity of the test materials is expressed as the percent inhibition of the increase in hind paw weight of the test group relative to the vehicle dosed control group.
The anti-inflammatory activities (expressed as % inhibition) of some of the compounds of the invention were: […]
For orientation: In the carrageenan paw model, swelling and tenderness develop within hours.

Where only a bound is given, the exact number is not on record here.

In the case of `COc1ccc2c(c1)c(CC(=O)O)c(C)n2C(=O)c1ccc(Cl)cc1` [Indomethacin, reference compound], in the assay on PGE2 (2-5 mg/Kg), the “% Inhibition of air pouch PGE2 formation” value was over 70%. The “inhibition of cognitive decline of Alzheimer's patients” value in the assay on Alzheimer's patients is reported as “inhibit the cognitive decline of Alzheimer's patients”.

In general, IC50 refers to the midpoint of a concentration-inhibition curve. The low end stands for greater potency, the high end for weaker potency. With `CS(=O)(=O)c1ccc2c(C(=O)c3ccc(Cl)cc3)c(C#N)ccc2c1` [compound 104, 5-(4-chlorobenzoyl)-6-cyano-2-methylsulfonylnaphthalene], the IC50 turned out to be 93000 nM against COX I and 570 nM at COX II. The “% Inhibition of paw edema” value in assay [1] (30 mg/Kg) is 33%. The “% Inhibition of air pouch PGE2 formation” value in the assay with PGE2 (1 mg/Kg) is recorded as 76.5%.

Regarding `COc1ccc2cc(S(N)(=O)=O)ccc2c1C(=O)c1ccc(C)cc1` [compound 4, 5-(4-methylbenzoyl)-6-methoxy-2-naphthalenesulfonamide], the IC50 against COX I was determined as 2800 nM; against COX II it was 840 nM. For the same compound, in assay [1] (10 mg/Kg), the “% Inhibition of paw edema” value stood at 26.41%. The “% Inhibition of air pouch PGE2 formation” value with PGE2 (10 mg/Kg) came to 74.6%.
